Source: patent US20120028929A1, “TETRACYCLINE STABILIZING FORMULATIONS” (ALACRITY BIOSCIENCE, INC., priority 2008, published 2012)
“And” between values parts separate entries of the source, which are not always exact repeats. Identical values can stand only once.

How the values were obtained:
[1] = previous studies; cited from earlier work
[2] = format: physicochemical
Protocol: The rate of doxycycline epimerization increased with temperature and time (see Table 7). […] Long-term storage (more than 18 months) should therefore be at refrigeration temperatures (2-8° C.) to minimize conversion of doxycycline to its epimers.
After 12 months of storage at 5° C., about 0.0014% w/w of the doxycycline in solution was lost to degradation. That is, original doxycyline concentration was 0.025% w/w and concentration after 12 months was 0.0236% w/w, corresponding to 94.4% Label Claim (LC).
The epimerization of doxycycline into 4-epidoxycycline is reversible, and the rate of 4-epidoxycycline formation is related to the kinetic equilibrium between the two compounds. Therefore, one method for specifically reducing the rate of doxycycline epimerization into 4-epidoxycycline is to fortify the formulation with 4-epidoxycycline.

[3] = Combinatorial effect of antioxidants and tonicity adjustment agents in doxycycline stability; format: physicochemical; settings: for doxycycline stability 5 Wks / doxycycline stability 8 Wks / doxycycline stability 12 Wks / doxycycline stability 2 Wks / doxycycline stability Init.: HPMC
Text: (§1) Standard methods known in the art are used for monitoring the degradation of tetracycline into its epimers or degradation products. For example, one method for monitoring tetracycline degradation is an analytical technique using chromatography, e.g. high pressure liquid chromatography (HPLC), to separate the various degradants, e.g. epimers and other degradants, and a sensitive detector to identify and quantify the concentrations of the drug and degradants over time.

[4] = Multi-dimensional parametric testing of doxycycline stability in aqueous solution; format: physicochemical; settings: for doxycycline stability t = 0 / doxycycline stability 2 wks / doxycycline stability 4 wks: 250 μg/mL; for degradation: 2 weeks
Text: as §1
A multi-dimensional parametric test on doxycycline stability was conducted to study the effect of pH, storage temperature and the presence of various chemical agents.

[5] = Edetate Disodium 0.1%, Sodium Metabisulfite 0.1%, Sodium Thiosulfate 0.2%, Glycerin (167 mOsm/kg), 5° C.
[6] = Edetate Disodium 0.1%, Sodium Metabisulfite 0.1%, Sodium Thiosulfate 0.2%, Glycerin (167 mOsm/kg), 25° C.
[7] = Edetate Disodium 0.2%, Sodium Metabisulfite 0.2%, Sodium Thiosulfate 0.3%, Glycerin (287 mOsm/kg), 5° C.
[8] = Edetate Disodium 0.2%, Sodium Metabisulfite 0.2%, Sodium Thiosulfate 0.3%, Glycerin (287 mOsm/kg), 25° C.
[9] = Edetate Disodium 0.2%, Sodium Metabisulfite 0.2%, Sodium Thiosulfate 0.3%, Glycerin (287 mOsm/kg), 40° C.
[10] = Edetate Disodium 0.2%, Sodium Metabisulfite 0.2%, Sodium Thiosulfate 0.3%, NaCl (330 mOsm/kg), 5° C.
[11] = Disodium Edetate, pH 5.3, 5° C.
[12] = Disodium Edetate, pH 5.3, 25° C.
[13] = Sodium Metabisulfite, pH 5.3, 5° C.
[14] = Sodium Metabisulfite, pH 5.3, 25° C.
[15] = Sodium Thiosulfate, pH 5.3, 5° C.
[16] = Sodium Thiosulfate, pH 5.3, 25° C.

C[C@H]1c2cccc(O)c2C(O)=C2C(=O)[C@]3(O)C(O)=C(C(N)=O)C(=O)[C@H](N(C)C)[C@@H]3[C@@H](O)[C@@H]21 [4-epidoxycycline]
function as an antibiotic [1]: does not function as an antibiotic

C[C@H]1c2cccc(O)c2C(=O)C2=C(O)[C@]3(O)C(=O)C(C(N)=O)=C(O)[C@@H](N(C)C)[C@@H]3[C@@H](O)[C@@H]21 [doxycycline]
effect of fortifying with 4-epidoxycycline on degradation [2]: reduced degradation of doxycycline during storage
share of degradation by epimerization into 4-epidoxycycline [2]: over half of the degradation
doxycycline in solution lost to degradation ([2]; 12 months, 0.025 % w/w): about 0.0014 % w/w
route of doxycycline degradation ([2]; 12 months, 0.025 % w/w): practically all of the degradation of doxycycline at 5 °C was through conversion into 4-epidoxycycline
degradation ([3]; 0.025% w/w doxycycline, edetate, metabisulfite, thiosulfate, phosphate-citrate buffer, glycerin, pH 5.2-5.8, 12 weeks at 5° C.): no detectable degradation
doxycycline stability 5 Wks [3, 5]: 102.8%
doxycycline stability 8 Wks [3, 5]: 100.6%
doxycycline stability 12 Wks [3, 5]: 99.4%
doxycycline stability 5 Wks [3, 6]: 97.0%
doxycycline stability 8 Wks [3, 6]: 90.4%
doxycycline stability 12 Wks [3, 6]: 85.1%
doxycycline stability 5 Wks ([3]; Edetate Disodium 0.1%, Sodium Metabisulfite 0.1%, Sodium Thiosulfate 0.2%, Glycerin (167 mOsm/kg), 40° C.): 58.2%
doxycycline stability 5 Wks ([3]; Edetate Disodium 0.1%, Sodium Metabisulfite 0.1%, Sodium Thiosulfate 0.2%, NaCl (325 mOsm/kg), 5° C.): 103.6%
doxycycline stability 5 Wks ([3]; Edetate Disodium 0.1%, Sodium Metabisulfite 0.1%, Sodium Thiosulfate 0.2%, NaCl (325 mOsm/kg), 25° C.): 96.6%
doxycycline stability 5 Wks ([3]; Edetate Disodium 0.1%, Sodium Metabisulfite 0.1%, Sodium Thiosulfate 0.2%, NaCl (325 mOsm/kg), 40° C.): 55.8%
doxycycline stability 5 Wks ([3]; Edetate Disodium 0.1%, Sodium Metabisulfite 0.1%, Glycerin (138 mOsm/kg), 5° C.): 94.6%
doxycycline stability 5 Wks ([3]; Edetate Disodium 0.1%, Sodium Metabisulfite 0.1%, Glycerin (138 mOsm/kg), 25° C.): 84.9%
doxycycline stability 5 Wks ([3]; Edetate Disodium 0.1%, Sodium Metabisulfite 0.1%, Glycerin (138 mOsm/kg), 40° C.): 47.1%
doxycycline stability 5 Wks ([3]; Edetate Disodium 0.1%, Sodium Metabisulfite 0.1%, NaCl (305 mOsm/kg), 5° C.): 90.6%
doxycycline stability 5 Wks ([3]; Edetate Disodium 0.1%, Sodium Metabisulfite 0.1%, NaCl (305 mOsm/kg), 25° C.): 81.8%
doxycycline stability 5 Wks ([3]; Edetate Disodium 0.1%, Sodium Metabisulfite 0.1%, NaCl (305 mOsm/kg), 40° C.): 46.5%
doxycycline stability 2 Wks [3, 7]: 103.0%
doxycycline stability 5 Wks [3, 7]: 101.2%
doxycycline stability 8 Wks [3, 7]: 100.6%
doxycycline stability 12 Wks [3, 7]: 100.4%
doxycycline stability Init. [3, 7]: 103.2%
doxycycline stability 2 Wks [3, 8]: 101.0%
doxycycline stability 5 Wks [3, 8]: 93.3%
doxycycline stability 8 Wks [3, 8]: 85.2%
doxycycline stability 12 Wks [3, 8]: 84.8%
doxycycline stability 2 Wks [3, 9]: 80.3%
doxycycline stability 5 Wks [3, 9]: 55.1%
doxycycline stability 2 Wks [3, 10]: 103.0%
doxycycline stability Init. [3, 10]: 103.4%
doxycycline stability 2 Wks ([3]; Edetate Disodium 0.2%, Sodium Metabisulfite 0.2%, Sodium Thiosulfate 0.3%, NaCl (330 mOsm/kg), 25° C.): 100.6%
doxycycline stability 2 Wks ([3]; Edetate Disodium 0.2%, Sodium Metabisulfite 0.2%, Sodium Thiosulfate 0.3%, NaCl (330 mOsm/kg), 40° C.): 79.9%
doxycycline stability t = 0 ([4]; Disodium Edetate, pH 5.3): 100%
doxycycline stability 2 wks [4, 11]: 99%
doxycycline stability 4 wks [4, 11]: 96%
doxycycline stability 2 wks [4, 12]: 97%
doxycycline stability 4 wks [4, 12]: 88%
doxycycline stability 2 wks ([4]; Disodium Edetate, pH 5.3, 40° C.): 24%
doxycycline stability t = 0 ([4]; Disodium Edetate, pH 7): 100%
doxycycline stability 2 wks ([4]; Disodium Edetate, pH 7, 5° C.): 96%
doxycycline stability 2 wks ([4]; Disodium Edetate, pH 7, 25° C.): 55%
doxycycline stability 2 wks ([4]; Disodium Edetate, pH 7, 40° C.): 4%
doxycycline stability t = 0 ([4]; None (no antioxidant/chelating agent), pH 5.3): 100%
doxycycline stability 2 wks ([4]; None, pH 5.3, 5° C.): 96%
doxycycline stability 4 wks ([4]; None, pH 5.3, 5° C.): 93%
doxycycline stability 2 wks ([4]; None, pH 5.3, 25° C.): 73%
doxycycline stability 4 wks ([4]; None, pH 5.3, 25° C.): 59%
doxycycline stability 2 wks ([4]; None, pH 5.3, 40° C.): 19%
doxycycline stability t = 0 ([4]; None, pH 7): 100%
doxycycline stability 2 wks ([4]; None, pH 7, 5° C.): 94%
doxycycline stability 2 wks ([4]; None, pH 7, 25° C.): 49%
doxycycline stability 2 wks ([4]; None, pH 7, 40° C.): 11%
doxycycline stability t = 0 ([4]; Sodium Bisulfite, pH 5.3): 100%
doxycycline stability 2 wks ([4]; Sodium Bisulfite, pH 5.3, 5° C.): 88%
doxycycline stability 2 wks ([4]; Sodium Bisulfite, pH 5.3, 25° C.): 72%
doxycycline stability 2 wks ([4]; Sodium Bisulfite, pH 5.3, 40° C.): 57%
doxycycline stability t = 0 ([4]; Sodium Bisulfite, pH 7): 100%
doxycycline stability 2 wks ([4]; Sodium Bisulfite, pH 7, 5° C.): 91%
doxycycline stability 2 wks ([4]; Sodium Bisulfite, pH 7, 25° C.): 83%
doxycycline stability 2 wks ([4]; Sodium Bisulfite, pH 7, 40° C.): 48%
doxycycline stability t = 0 ([4]; Sodium Metabisulfite, pH 5.3): 100%
doxycycline stability 2 wks [4, 13]: 99%
doxycycline stability 4 wks [4, 13]: 97%
doxycycline stability 2 wks [4, 14]: 92%
doxycycline stability 4 wks [4, 14]: 90%
doxycycline stability 2 wks ([4]; Sodium Metabisulfite, pH 5.3, 40° C.): 59%
doxycycline stability t = 0 ([4]; Sodium Metabisulfite, pH 7): 100%
doxycycline stability 2 wks ([4]; Sodium Metabisulfite, pH 7, 5° C.): 97%
doxycycline stability 2 wks ([4]; Sodium Metabisulfite, pH 7, 25° C.): 86%
doxycycline stability 2 wks ([4]; Sodium Metabisulfite, pH 7, 40° C.): 51%
doxycycline stability t = 0 ([4]; Sodium Thiosulfate, pH 5.3): 100%
doxycycline stability 2 wks [4, 15]: 99%
doxycycline stability 4 wks [4, 15]: 99%
doxycycline stability 2 wks [4, 16]: 95%
doxycycline stability 4 wks [4, 16]: 93%
doxycycline stability 2 wks ([4]; Sodium Thiosulfate, pH 5.3, 40° C.): 67%
doxycycline stability t = 0 ([4]; Sodium Thiosulfate, pH 7): 100%
doxycycline stability 2 wks ([4]; Sodium Thiosulfate, pH 7, 5° C.): 96%
doxycycline stability 2 wks ([4]; Sodium Thiosulfate, pH 7, 25° C.): 91%
doxycycline stability 2 wks ([4]; Sodium Thiosulfate, pH 7, 40° C.): 7%
doxycycline stability t = 0 ([4]; Thiourea, pH 5.3): 100%
doxycycline stability 2 wks ([4]; Thiourea, pH 5.3, 5° C.): 98%
doxycycline stability 2 wks ([4]; Thiourea, pH 5.3, 25° C.): 80%
doxycycline stability 2 wks ([4]; Thiourea, pH 5.3, 40° C.): 22%
doxycycline stability t = 0 ([4]; Thiourea, pH 7): 100%
doxycycline stability 2 wks ([4]; Thiourea, pH 7, 5° C.): 98%
doxycycline stability 2 wks ([4]; Thiourea, pH 7, 25° C.): 74%
doxycycline stability 2 wks ([4]; Thiourea, pH 7, 40° C.): 9%
degradation ([4]; aqueous solution, neutral pH, 5° C., no additive): 6%
degradation ([4]; aqueous solution, neutral pH, room temperature (RT), no additive): 51%
degradation ([4]; aqueous solution, neutral pH, room temperature (RT), no additive, listed as doxcycline): about 51%
degradation ([4]; pH 5.3, RT, addition of edetate disodium): 3%
degradation ([4]; pH 5.3, RT, addition of sodium bisulfate): 28%
degradation ([4]; pH 5.3, RT, addition of sodium metabisulfite): 8%
degradation ([4]; pH 5.3, RT, addition of sodium thiosulfate): 5%
degradation ([4]; pH 5.3, RT, addition of thiourea): 20%
degradation ([4]; pH 5.3, RT, no additive): 28% and 27%
